“And” between values parts separate entries of the source, which are not always exact repeats. Equal values may be shown once. Where a name gives a salt, the structure may show the parent alone. Values belong to the molecule of their own block, whether it stands above or below them.
Key:
[1] = biological target: hBACE-1 (Homo sapiens, UniProt P56817); assay: BACE-1 FRET inhibition assay; format: biochemical; conditions: for inhibition at 5 µM: tested at 5 µM concentration; for IC50: FRET assay, average of multiple experiments each in triplicate, ± SEM
Chain of hBACE-1 (P56817 46-501): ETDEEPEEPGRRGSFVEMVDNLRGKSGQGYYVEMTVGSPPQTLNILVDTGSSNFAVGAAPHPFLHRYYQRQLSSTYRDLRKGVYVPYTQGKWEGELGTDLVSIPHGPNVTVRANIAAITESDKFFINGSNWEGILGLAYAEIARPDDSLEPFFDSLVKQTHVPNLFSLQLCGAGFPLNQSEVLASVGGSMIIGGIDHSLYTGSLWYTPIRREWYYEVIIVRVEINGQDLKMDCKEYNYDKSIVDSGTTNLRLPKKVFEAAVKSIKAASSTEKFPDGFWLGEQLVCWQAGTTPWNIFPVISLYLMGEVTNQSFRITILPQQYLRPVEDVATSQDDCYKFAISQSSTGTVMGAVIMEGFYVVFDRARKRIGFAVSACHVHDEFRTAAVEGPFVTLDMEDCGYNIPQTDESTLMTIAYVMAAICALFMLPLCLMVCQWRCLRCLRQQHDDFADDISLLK
Protocol: The new benzophenone-based hybrids 3–7 presented in this study were first evaluated for their in vitro ability to inhibit the enzymatic activity of BACE-1, by means of a biochemical assay performed using the fluorescence resonance energy transfer (FRET) methodology and in comparison to inhibitor IV [22] as reference compound (Table 1). For the most interesting compounds 3–5, endowed with the orto-hydroxycarbonyl substitution pattern, the neuroprotective potential was determined as lack of toxic effects on neuronal cell viability and as Cu(II) chelating activity (Table 2); moreover, their direct interactions with Cu(II) ion were confirmed by a UV-vis spectrophotometric study.
Inhibition studies were performed using the following procedure: 5 μL of test compound (or DMSO) were pre-incubated with 175 μL of enzyme (10.37 nM, final concentration) in 20 mM NaOAc pH 4.5 containing CHAPS (0.1% w/v) for 1 h at r.t.; M-2420 (3 μM, final concentration) was then added and left to react for 15 min. The fluorescence signal was read at λem = 405 nm (λexc = 320 nm). DMSO concentration in the final mixture was maintained below 5% (v/v) to guarantee no significant loss of enzyme activity.Fluorescence intensities with and without inhibitor were compared and the percent inhibition due to the presence of test compounds was calculated. The background signal was measured in control wells containing all the reagents, except theenzymeand subtracted. The % inhibition due to the presence of increasing test compound concentration was calculated by the following expression: 100 − (IFi/IFo × 100) where IFi and IFo are the fluorescence intensities obtained for the enzyme in the presence and in the absence of inhibitor, respectively. Inhibition curves were obtained for each compound by plotting the % inhibition versus the logarithm of inhibitor concentration in the assay sample. The linear regression parameters were determined and the IC50 extrapolated (GraphPad Prism 4.0, GraphPad Software Inc., San Diego, CA, USA).

[2] = biological target: CatD (Homo sapiens, UniProt P07339); assay: CatD inhibition; format: biochemical; conditions: up to 0.5 μM
Chain of CatD (P07339 65-412): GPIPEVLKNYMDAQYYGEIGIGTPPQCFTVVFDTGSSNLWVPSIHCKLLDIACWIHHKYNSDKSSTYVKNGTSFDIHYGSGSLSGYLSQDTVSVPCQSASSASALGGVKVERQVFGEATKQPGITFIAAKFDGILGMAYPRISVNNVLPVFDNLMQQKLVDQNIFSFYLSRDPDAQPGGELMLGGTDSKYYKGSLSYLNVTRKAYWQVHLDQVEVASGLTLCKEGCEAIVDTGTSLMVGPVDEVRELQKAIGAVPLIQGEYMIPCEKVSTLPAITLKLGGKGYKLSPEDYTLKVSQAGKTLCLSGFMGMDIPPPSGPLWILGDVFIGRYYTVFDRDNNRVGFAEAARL

[3] = tested on: SH-SY5Y cells; assay: Neurotoxicity, MTT cell viability assay; format: cell-based, human; conditions: for IC50: Homo sapiens, SH-SY5Y cells, 24 h treatment, 1.25–40 µM, MTT, mean ± SD
Protocol: Cytotoxic effects in several in vitro or in vivo models have been reported for some chalcones. Therefore, to discriminate the neurotoxic concentrations of the conjugates 3–5 we evaluated the cell viability of human neuronal SH-SY5Y cells after 24 h treatment with these conjugate at different concentrations (1.25–40 μM) using the MTT assay. […] Thus, the presence of an α,β-unsatured carbonyl fragment seems to positively influence the degree of neuronal toxicity, leading to molecules endowed with a favorable SI.
Human neuronal (SH-SY5Y) cells were routinely grown in Dulbecco’s modified Eagle’ Medium (DMEM) supplemented with 10% fetal bovine serum, 2 mmol/L-glutamine, 50 U·mL^−1penicillin and 50 μg·mL^−1streptomycin at 37 °C in a humidified incubator with 5% CO2.
To evaluate the neurotoxicity of compounds, the SH-SY5Y cells were seeded in 96-well plates at 2 × 10^4 cells/well, incubated for 24 h and subsequently treated with various concentrations of compounds (1.25–40 µM) for 24 h at 37 °C in 5% CO2;. The cell viability in terms of mitochondrial metabolic function was evaluated by the reduction in 3-(4,5-dimethyl-2-thiazolyl)-2,5-diphenyl-2H-tetrazolium bromide (MTT) to formazan as previously described. The quantity of formazan was directly proportional to the number of viable cells. Briefly, the treatment medium was replaced with MTT (5 mg/mL) in phosphate-buffered saline (PBS) for 2 h at 37 °C in 5% CO2. After washing with PBS, the formazan crystals were dissolved with isopropanol. The amount of formazan was measured (570 nm, reference filter 690 nm) using a multilabel plate reader (VICTOR™ X3, PerkinElmer, Waltham, MA, USA). The neurotoxicity is expressed as concentration of compound resulting in 50% inhibition of cell viability.

[4] = Cu(II) chelating assay (bathocuproinedisulfonic acid disodium salt, BCS); format: physicochemical
Protocol: Data were expressed as chelating activity percentage (Table 2).
The Cu(II) chelating activity of the compounds was determined using the bathocuproinedisulfonic acid disodium salt (BCS) assay as previously described. Briefly, 50 μL of a 0.25 mM CuSO4 solution were mixed for 2 min with 50 μL of 5–20 µM compound solution in 100 µL of HEPES buffer (15 mM). Hydroxylamine (1 mM) was added after 2 min in order to reduce non-chelated cupric ions into cuprous ones. Finally, 50 μL of BCS (5 mM) or water (blank) was added and the absorbance at 490 nm was measured by spectrophotometry using a multilabel plate reader (VICTOR™ X3, PerkinElmer, Waltham, MA, USA) immediately and at 5 min. Na2EDTA (5–20 µM) was used as a positive control. The ability of the test compounds to chelate cupric ions was calculated using the following equation: chelating activity (%) = [1 − (Abs BCS + compound/Abs BCS) × 100].

[5] = UV-vis spectrophotometric evaluation of Cu(II) ion complexation; format: physicochemical
Source text: Chalcone conjugates 4 and 5 were investigated to evaluate their ability to complex Cu(II) ions via a UV-vis spectrophotometric study.
Therefore, we decided to carry on the spectrophotometric measurements in a mixed solvent: aqueous MOPS aqueous buffer […] pH 7.4 /DMF in 1:4 ratio, respectively. Flavonoids bearing the 4-carbonyl-5-hydroxyl chelation site have characteristic UV-vis spectra, characterized by a wide and non-structured band centred around 370–380 nm, with a molar extinction coefficient of 50,000 cm^−1·M^−1 that is attributed to HOMO-LUMO transition with a π-π* character.
All reagents and solvents were used as received (from Aldrich, St. Louis, MO, USA) without further purification: copper(II) sulphate hydrate (≥98%), 3-(N-Morpholino)propanesulfonic acid (MOPS, ≥99.5%), sodium hydroxide (≥98%), N,N-dimethylformamide (spectroscopic grade, DMF). A Milli-Q system (Millipore, Billerica, MA, USA) was used for the purification of water (resistivity ≥18.2 MΩ). MOPS bufferstock solution were obtained by a dissolution in Milli-Q water of 3-(N-morpholino)propane sulphonic acid to a final concentration of 10^−3 M. The pH was corrected with a solution of sodium hydroxide 1 N to a value of pH 7.4. Absorption spectra were recorded on a Perkin-Elmer Lambda 45 spectrophotometer at room temperature. Spectrophotometric titrations were performed as follows: stock solutions of ligands (ca. 10^−3 M) were prepared in DMF, diluted down to the desired concentration, in the quartz cuvette, in MOPS buffer 10^−3 M pH 7.4/DMF (1:4) to a final volume of 2.5 mL and then titrated by adding increasing amounts of Cu(II) (3.04 × 10^−3 Min DMF).

[6] = 5 µM compound, fixed 40 µM CuSO4
[7] = 10 µM compound, fixed 40 µM CuSO4
[8] = 20 µM compound, fixed 40 µM CuSO4, mean ± SD

melting point: 264 to 268 °C
Molecule: CC(=O)c1ccc(OCCOc2ccc(C(=O)c3ccc(CN(C)Cc4ccccc4)cc3)cc2)cc1O (as salt: HCl) [Compound 3, 1-{4-[2-(4-4-Benzylmethylaminomethylbenzoylphenoxy)ethoxy]-2-hydroxyphenyl}ethan-1-one]

melting point: 220 to 222 °C
Molecule: COc1cc(/C=C/C(=O)c2ccc(OCCOc3ccc(C(=O)c4ccc(CN(C)Cc5ccccc5)cc4)cc3)cc2O)cc(OC)c1OC (as salt: HCl) [Compound 4, E-1-{4-[2-(4-4-Benzylmethylaminomethylbenzoylphenoxy)ethoxy]-2-hydroxyphenyl}-3-(3,4,5-trimethoxy-phenyl)prop-2-en-1-one]

melting point: 197 to 199 °C
Molecule: CN(Cc1ccccc1)Cc1ccc(C(=O)c2ccc(OCCOc3ccc(C(=O)/C=C/c4cccc5ccccc45)c(O)c3)cc2)cc1 (as salt: HCl) [Compound 5, E-1-{4-[2-(4-4-Benzylmethylaminomethylbenzoylphenoxy)ethoxy]-2-hydroxyphenyl}-3-(naphthalen-1-yl)-prop-2-en-1-one]

melting point: 182 to 194 °C
Molecule: COc1cc(C2CC(=O)c3ccc(OCCOc4ccc(C(=O)c5ccc(CN(C)Cc6ccccc6)cc5)cc4)cc3O2)cc(OC)c1OC (centres unmarked) (as salt: HCl) [Compound 6, 7-{2-[4-(4-Benzylmethylaminomethylbenzoyl)phenoxy]ethoxy}-2-(3,4,5-trimethoxyphenyl)chroman-4-one]

melting point: 172 to 195 °C
Molecule: CN(Cc1ccccc1)Cc1ccc(C(=O)c2ccc(OCCOc3ccc4c(c3)OC(c3cccc5ccccc35)CC4=O)cc2)cc1 (centres unmarked) (as salt: HCl) [Compound 7]

inhibition at 5 µM [1]: 20%
CatD inhibition [2]: not inhib.
Molecule: COc1ccc(C(=O)c2ccc(CN(C)Cc3ccccc3)cc2)cc1OC [Compound 1]

inhibition at 5.2 µM ([1]; at 5.2 μM): 35.9%
inhibition at 5 µM [1]: 20%
melting point: 186 to 188 °C
Molecule: COc1cc(/C=C/C(=O)c2ccc(OCCO)cc2O)cc(OC)c1OC [Compound 2, (E)-1-[2-Hydroxy-4-(2-hydroxyethoxyphenyl)]-3-(3,4,5-trimethoxyphenyl)prop-2-en-1-one]

IC50 [1]: 3.18 ± 0.21 µM
Molecule: CC(=O)c1ccc(OCCOc2ccc(C(=O)c3ccc(CN(C)Cc4ccccc4)cc3)cc2)cc1O [Compound 3, 1-{4-[2-(4-4-Benzylmethylaminomethylbenzoylphenoxy)ethoxy]-2-hydroxyphenyl}ethan-1-one]
IC50 [3]: 10.9 ± 1.63 µM
Cu(II)-Chelating Activity [4, 6]: 0.00%
Cu(II)-Chelating Activity [4, 7]: 3.49%
Cu(II)-Chelating Activity [4, 8]: 5.37% and 5.37 ± 0.16%

IC50 [1]: 1.06 ± 0.15 µM
Molecule: COc1cc(/C=C/C(=O)c2ccc(OCCOc3ccc(C(=O)c4ccc(CN(C)Cc5ccccc5)cc4)cc3)cc2O)cc(OC)c1OC [Compound 4, E-1-{4-[2-(4-4-Benzylmethylaminomethylbenzoylphenoxy)ethoxy]-2-hydroxyphenyl}-3-(3,4,5-trimethoxy-phenyl)prop-2-en-1-one]
IC50 [3]: 23.7 ± 3.54 µM
selectivity index SI ([3]; neurotoxicity IC50 versus BACE-1 IC50): around 22
Cu(II)-Chelating Activity [4, 6]: 7.16%
Cu(II)-Chelating Activity [4, 7]: 10.77%
Cu(II)-Chelating Activity [4, 8]: 15.07% and 15.07 ± 1.32%
ability to complex Cu(II) ions ([5]; UV-vis spectra, MOPS buffer pH 7.4/DMF 1:4): able to chelate the selected ion
association constant (order of magnitude) ([5]; estimated from titration data, 1:1 complex stoichiometry with Cu(II), MOPS pH 7.4/DMF 1:4): ~10^4

IC50 [1]: 1.56 ± 0.23 µM
Molecule: COc1cc(C2CC(=O)c3ccc(OCCOc4ccc(C(=O)c5ccc(CN(C)Cc6ccccc6)cc5)cc4)cc3O2)cc(OC)c1OC (centres unmarked) [Compound 6, 7-{2-[4-(4-Benzylmethylaminomethylbenzoyl)phenoxy]ethoxy}-2-(3,4,5-trimethoxyphenyl)chroman-4-one]

IC50 [1]: 3.97 ± 0.33 µM
Molecule: CN(Cc1ccccc1)Cc1ccc(C(=O)c2ccc(OCCOc3ccc4c(c3)OC(c3cccc5ccccc35)CC4=O)cc2)cc1 (centres unmarked) [Compound 7]

Molecule: disodium salt of ethylene diaminetetraacetic acid [Na2EDTA, reference compound]
Cu(II)-Chelating Activity [4, 8]: 17.10 ± 1.44%
